Read-outs that look alike come from different tables or passages of the source.
Tested on: 280 human cancer cell lines
Assay: OncoPanel cell proliferation assay (10-day)
Type: cell-based
Conditions: Homo sapiens; for GI50: read-out: Cell Count GI50; for IC50: read-out: Cell Count IC50; for EC50: read-out: Cell Count EC50
[1] = C-4-II, C-4 II, Female GU - Cervix
[2] = C-33-A, C-33A, Female GU - Cervix
[3] = CAL-62, CAL-62, Endocrine - Thyroid
[4] = CCF-STTG1, CCF-STTG1, CNS - Glioma
[5] = CGTH-W-1, CGTH-W-1, Endocrine - Thyroid
[6] = CHP-212, CHP-212, CNS - Neuroblastoma
[7] = COLO-320-HSR, Colo 320 HSR, Colon
[8] = COLO-829, COLO 829, Skin (Melanoma)
[9] = COR-L105, COR-L105, Lung - NSCLC
[10] = Ca-Ski, Ca Ski, Female GU - Ovary

## CC(C)=CCC[C@H](C)[C@@H]1CC[C@@H](C)c2c1cc(C)c(O)c2O [Compound 4, 7,8-dihydroxyserrulat-14-ene]
BT-474, BT474, Breast
  GI50: 25 µM
  IC50: 25.7 µM
BT-549, BT-549, Breast
  EC50: 15.3 µM
  GI50: 15.1 µM
  IC50: 15.3 µM
BV-173, BV-173, Leukemia
  EC50: 3.56 µM
  GI50: 3.55 µM
  IC50: 3.56 µM
BXPC-3, BxPC-3, Pancreas
  EC50: 13.4 µM
  GI50: 13.4 µM
  IC50: 13.4 µM
BeWo, Placenta
  EC50: 15.6 µM
  GI50: 15.5 µM
  IC50: 15.6 µM
C32, Skin (Melanoma)
  EC50: 7.84 µM
  GI50: 6.37 µM
  IC50: 7.84 µM
[1]
  EC50: 12.6 µM
  GI50: 12.5 µM
  IC50: 12.6 µM
[2]
  EC50: 9.57 µM
  GI50: 9.42 µM
  IC50: 9.57 µM
CA46, CA46, Lymphoma
  EC50: 4.06 µM
  GI50: 4.06 µM
  IC50: 4.06 µM
CAKI-1, Caki-1, Kidney
  EC50: 14.4 µM
  GI50: 14.1 µM
  IC50: 14.4 µM
CAKI-2, Caki-2, Kidney
  EC50: 13.1 µM
  GI50: 13.5 µM
  IC50: 13.6 µM
CAL-27, Cal 27, Head and Neck
  EC50: 12.3 µM
  GI50: 12.2 µM
  IC50: 12.3 µM
[3]
  EC50: 5.36 µM
  GI50: 5.36 µM
  IC50: 5.36 µM
CAMA-1, CAMA-1, Breast
  EC50: > 30 µM
  GI50: > 30 µM
  IC50: > 30 µM
CAPAN-1, Capan-1, Pancreas
  EC50: > 30 µM
  GI50: > 30 µM
  IC50: > 30 µM
[4]
  EC50: 19.7 µM
  GI50: 16 µM
  IC50: 19.7 µM
CCRF-CEM, CCRFCEM, Leukemia
  EC50: 4.92 µM
  GI50: 4.91 µM
  IC50: 4.93 µM
CEM/C1, CEM-C1, Leukemia
  EC50: 1.47 µM
  GI50: 1.47 µM
  IC50: 1.47 µM
CFPAC-1, CFPAC-1, Pancreas
  EC50: 25.2 µM
  GI50: 25.1 µM
  IC50: 25.2 µM
[5]
  EC50: 3.45 µM
  GI50: 3.47 µM
  IC50: 3.48 µM
CHL-1, CHL-1, Skin (Melanoma)
  EC50: 11.9 µM
  GI50: 11.8 µM
  IC50: 11.9 µM
[6]
  EC50: 9.77 µM
  GI50: 9.74 µM
  IC50: 9.78 µM
CML-T1, CML-T1, Leukemia
  EC50: 3.93 µM
  GI50: 3.93 µM
  IC50: 3.93 µM
COLO 201, Colo 201, Colon
  EC50: 4.07 µM
  GI50: 4.04 µM
  IC50: 4.07 µM
COLO 205, Colo 205, Colon
  EC50: 11.9 µM
  GI50: 11.9 µM
  IC50: 11.9 µM
COLO 320DM, Colon
  EC50: 7.91 µM
  GI50: 7.87 µM
  IC50: 7.91 µM
[7]
  EC50: 5.15 µM
  GI50: 5.15 µM
  IC50: 5.16 µM
[8]
  EC50: 3.71 µM
  GI50: 3.29 µM
  IC50: 3.71 µM
COR-L23, COR-L23, Lung - NSCLC
  EC50: 13.3 µM
  GI50: 13.2 µM
  IC50: 13.3 µM
[9]
  EC50: 8.66 µM
  GI50: 8.47 µM
  IC50: 8.66 µM
CRO-AP2, CRO-AP2, Lymphoma
  EC50: 9.94 µM
  GI50: 9.88 µM
  IC50: 9.94 µM
[10]
  EC50: 17.6 µM
  GI50: 17.6 µM
  IC50: 17.6 µM
Calu-1, Calu1, Lung - NSCLC
  EC50: 8.88 µM
  GI50: 8.77 µM
  IC50: 8.88 µM
Calu-6, Calu6, Lung - NSCLC
  EC50: 25 µM
  GI50: 24.5 µM
  IC50: 25 µM
